According to US10821118B2, “Oral transmucosal drug delivery system” (ABON PHARMACEUTICALS, LLC, priority 2012, dated 2020):
Values after ≈ are worked out from the molar mass of the structure shown.

Assays:
[1] = Solubility of crystalline drug in water; details: 37 °C
[2] = Testosterone solubility in aqueous media (SSF) containing various CIAs; format: physicochemical; details: Simulated Saliva Fluid (SSF) containing CIA, thermodynamic from solid, Solubility of Testosterone in CIA Containing SSF
Description: Then the sample was filtered through a 0.45 μm polyvinylidene fluoride (PVDF) and the filtrate was analyzed by HPLC.

[3] = tested on: Sex Hormone Binding Globulin (SHBG), albumin; details: cited from earlier work
[4] = Solubility of testosterone in molten CIA systems
Description: In each solubility study, a molten solvent of single or combination CIA was prepared by heating and melting the CIA system using a water bath. […] The melt suspension was mixed for at least another 30 minutes while maintaining the CIA's molten state.

[5] = Heat of fusion of testosterone by DSC, molten / heat treated testosterone-agent samples; format: physicochemical; details: pure crystalline testosterone, at melting point of about 150° C.
Description: The heat of fusion (ΔHf) can be measured via Differential Scanning calorimetry (DSC).
Talc is an inert purified hydrated magnesium silicate with a melting point of 1500° C.

C[C@]12CC[C@H]3[C@@H](CCC4=CC(=O)CC[C@@]43C)[C@@H]1CC[C@@H]2O [Testosterone]
solubility [1]: ~27 µg/mL (≈ 93.6 µM) | solubility ([2]; aqueous with cosolvent or surfactant or cyclodextrin, SSF with 0.25% vitamin E-TPGS): 60.8 µg/mL (≈ 211 µM) | solubility ([2]; aqueous with cosolvent or surfactant or cyclodextrin, SSF with 0.5% vitamin E-TPGS): 90.1 µg/mL (≈ 312 µM) | solubility ([2]; aqueous with cosolvent or surfactant or cyclodextrin, SSF with 5% lauroyl polyoxyl-32 glycerides): 358 µg/mL (≈ 1240 µM) | solubility ([2]; aqueous with cosolvent or surfactant or cyclodextrin, SSF with 5% oleic acid (oleic acid itself not soluble in SSF)): 27 µg/mL (≈ 93.6 µM) | solubility ([2]; aqueous with cosolvent or surfactant or cyclodextrin, SSF with 5% polyethylene glycol): 32 µg/mL (≈ 111 µM) | solubility ([2]; aqueous with cosolvent or surfactant or cyclodextrin, SSF with 5% vitamin E-TPGS): 600 µg/mL (≈ 2080 µM) | solubility ([2]; aqueous with cosolvent or surfactant or cyclodextrin, SSF with 10% lauroyl polyoxyl-32 glycerides): 694 µg/mL (≈ 2410 µM) | solubility ([2]; aqueous with cosolvent or surfactant or cyclodextrin, SSF with 10% oleic acid (oleic acid itself not soluble in SSF)): 29 µg/mL (≈ 101 µM) | solubility ([2]; aqueous with cosolvent or surfactant or cyclodextrin, SSF with 10% polyethylene glycol): 45 µg/mL (≈ 156 µM) | solubility ([2]; aqueous with cosolvent or surfactant or cyclodextrin, SSF with 10% vitamin E-TPGS): 1210 µg/mL (≈ 4200 µM) | solubility ([2]; aqueous with cosolvent or surfactant or cyclodextrin, SSF with 20% lauroyl polyoxyl-32 glycerides): 1350 µg/mL (≈ 4670 µM) | solubility ([2]; aqueous with cosolvent or surfactant or cyclodextrin, SSF with 20% oleic acid (oleic acid itself not soluble in SSF)): 29 µg/mL (≈ 101 µM) | solubility ([2]; aqueous with cosolvent or surfactant or cyclodextrin, SSF with 20% polyethylene glycol): 69.4 µg/mL (≈ 241 µM) | solubility ([2]; aqueous with cosolvent or surfactant or cyclodextrin, SSF with 20% vitamin E-TPGS): 2250 µg/mL (≈ 7800 µM) | solubility ([2]; aqueous with cosolvent or surfactant or cyclodextrin, saturated CIA solution, 0.34 g/mL of lauroyl polyoxyl-32 glycerides in SSF): 2370 µg/mL (≈ 8220 µM) | solubility ([2]; aqueous with cosolvent or surfactant or cyclodextrin, saturated CIA solution, 0.53 g of vitamin E TPGS in SSF): 4190 µg/mL (≈ 14500 µM) | solubility ([2]; aqueous with cosolvent or surfactant or cyclodextrin, saturated CIA solution, 1.73 g/mL of polyethylene glycol in SSF): 1600 µg/mL (≈ 5550 µM) | solubility ([2]; fassgf or other biorelevant, SSF with 0.25% polyethylene glycol): 28.1 µg/mL (≈ 97.4 µM) | solubility ([2]; fassgf or other biorelevant, SSF with 0.5% polyethylene glycol): 27.8 µg/mL (≈ 96.4 µM) | protein bound in the blood circulation ([3]; blood circulation): 96% | 'free' ([3]; in males): 2-3% | bound to Sex Hormone Binding Globulin (SHBG) ([3]; in males): about 44% | bound to albumin ([3]; in males): 50% | Solubility of Testosterone in CIA, Theoretical ([4]; Table 24: PEG 8000 50% / oleic acid 50%): 117.1 mg/gm | Solubility of Testosterone in CIA, Actual ([4]; Table 24: molten PEG 8000 50% / oleic acid 50%): 136.2 mg/gm | Solubility of Testosterone in CIA, Actual ([4]; Table 24: molten PEG 8000 50% / vitamin E-TPGS 50%): 137.9 mg/gm | Solubility of Testosterone in CIA, Actual ([4]; Table 24: molten oleic acid 50% / vitamin E-TPGS 50%): 123.6 mg/gm | Solubility of Testosterone in CIA, Actual ([4]; Table 24: molten oleic acid 100%): 58.3 mg/gm | Solubility of Testosterone in CIA, Actual ([4]; Table 24: molten oleic acid 100%, listed as testosterone): about 58.3 mg/gm | Solubility of Testosterone in CIA, Actual ([4]; Table 24: molten polyethylene glycol 8000 100%): 175.9 mg/gm | Solubility of Testosterone in CIA, Actual ([4]; Table 24: molten polyethylene glycol 8000 100%, listed as testosterone): about 175.9 mg/gm | Solubility of Testosterone in CIA, Actual ([4]; Table 24: molten vitamin E-TPGS 100%): 78.9 mg/gm | Solubility of Testosterone in CIA, Actual ([4]; Table 24: molten vitamin E-TPGS 100%, listed as testosterone): about 78.9 mg/gm | Solubility of Testosterone in CIA, Theoretical ([4]; Table 25: PEG 8000 50% / lauroyl polyoxyl-32 glycerides 50%): 130.0 mg/gm | Solubility of Testosterone in CIA, Theoretical ([4]; Table 25: PEG 8000 50% / vitamin E TPGS 50%): 130.6 mg/gm | Solubility of Testosterone in CIA, Actual ([4]; Table 25: molten PEG 8000 50% / lauroyl polyoxyl-32 glycerides 50%): 129.9 mg/gm | Solubility of Testosterone in CIA, Actual ([4]; Table 25: molten PEG 8000 50% / vitamin E TPGS 50%): 144.2 mg/gm | Solubility of Testosterone in CIA, Actual ([4]; Table 25: molten lauroyl polyoxyl-32 glycerides 100%): 81.6 mg/gm | Solubility of Testosterone in CIA, Actual ([4]; Table 25: molten polyethylene glycol 8000 100%): 178.4 mg/gm | Solubility of Testosterone in CIA, Actual ([4]; Table 25: molten vitamin E TPGS 50% / lauroyl polyoxyl-32 glycerides 50%): 114.6 mg/gm | Solubility of Testosterone in CIA, Actual ([4]; Table 25: molten vitamin E TPGS 100%): 82.7 mg/gm | Solubility of Testosterone in CIA, Theoretical ([4]; Table 25: vitamin E TPGS 50% / lauroyl polyoxyl-32 glycerides 50%): 82.2 mg/gm | Solubility of Testosterone in CIA, Actual ([4]; […]): 136.6 mg/gm | heat of fusion (ΔHf) [5]: about 102.4 J/g
